Test results taken from patent US12252484B2, “Pyrazolopyridine compounds for the treatment of autoimmune disease” (Hoffmann-La Roche Inc., priority 2018, dated 2025).

These compounds were tested against T1, human TLR9 (Homo sapiens, UniProt Q9NR96) (assay: HEK293-Blue-hTLR-9 cells assay (SEAP reporter, ODN2006 stimulation)). Settings: not given.
T1 sequence (Q9NR96 26-1032): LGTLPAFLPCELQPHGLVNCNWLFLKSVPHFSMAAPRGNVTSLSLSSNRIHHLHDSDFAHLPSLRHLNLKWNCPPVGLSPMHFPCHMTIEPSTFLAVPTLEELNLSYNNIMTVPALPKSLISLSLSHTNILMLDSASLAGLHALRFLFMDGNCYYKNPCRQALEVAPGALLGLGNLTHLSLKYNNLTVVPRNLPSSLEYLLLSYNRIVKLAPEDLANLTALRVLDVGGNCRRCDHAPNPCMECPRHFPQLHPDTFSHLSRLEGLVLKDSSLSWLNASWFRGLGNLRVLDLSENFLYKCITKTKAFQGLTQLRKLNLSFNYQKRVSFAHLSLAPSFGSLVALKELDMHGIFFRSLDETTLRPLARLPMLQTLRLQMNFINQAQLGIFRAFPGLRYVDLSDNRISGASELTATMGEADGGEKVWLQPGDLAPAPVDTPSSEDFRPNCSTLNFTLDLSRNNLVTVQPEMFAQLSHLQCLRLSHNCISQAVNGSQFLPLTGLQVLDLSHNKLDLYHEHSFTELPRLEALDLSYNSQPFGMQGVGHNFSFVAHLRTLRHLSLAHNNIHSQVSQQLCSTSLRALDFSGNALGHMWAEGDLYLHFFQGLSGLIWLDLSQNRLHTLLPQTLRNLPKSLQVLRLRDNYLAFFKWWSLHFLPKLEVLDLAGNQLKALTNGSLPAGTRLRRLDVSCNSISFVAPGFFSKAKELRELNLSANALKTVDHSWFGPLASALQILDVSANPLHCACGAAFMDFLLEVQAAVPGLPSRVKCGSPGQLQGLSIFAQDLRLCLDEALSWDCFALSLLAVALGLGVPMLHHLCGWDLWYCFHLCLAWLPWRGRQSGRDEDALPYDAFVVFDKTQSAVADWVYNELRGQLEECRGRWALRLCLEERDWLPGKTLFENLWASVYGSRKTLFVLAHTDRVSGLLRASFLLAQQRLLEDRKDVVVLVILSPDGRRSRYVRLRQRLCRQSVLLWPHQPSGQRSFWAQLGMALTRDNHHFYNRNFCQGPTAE
Type: cell-based
Experimental: The following tests were carried out in order to determine the activity of the compounds of formula (I) in HEK293-Blue-hTLR-7/8/9 cells assay.
HEK293-Blue-hTLR-9 Cells Assay:
A stable HEK293-Blue-hTLR-9 cell line was purchased from InvivoGen (Cat. #: hkb-htlr9, San Diego, California, USA). These cells were originally designed for studying the stimulation of human TLR9 by monitoring the activation of NF-κB. A SEAP (secreted embryonic alkaline phosphatase) reporter gene was placed under the control of the IFN-β minimal promoter fused to five NF-κB and AP-1-binding sites. The SEAP was induced by activating NF-κB and AP-1 via stimulating HEK-Blue hTLR9 cells with TLR9 ligands. Therefore the reporter expression was declined by TLR9 antagonist under the stimulation of a ligand, such as ODN2006 (Cat. #: tlrl-2006-1, Invivogen, San Diego, California, USA), for incubation of 20 hrs. The cell culture supernatant SEAP reporter activity was determined using QUANTI-Blue™ kit (Cat. #: rep-qb1, Invivogen, San Diego, California, USA) at a wavelength of 640 nm, a detection medium that turns purple or blue in the presence of alkaline phosphatase.
HEK293-Blue-hTLR9 cells were incubated at a density of 250,000˜450,000 cells/mL in a volume of 170 μL in a 96-well plate in Dulbecco's Modified Eagle's medium (DMEM) containing 4.5 g/L glucose, 50 U/mL penicillin, […], 2 mM L-glutamine, 10% (v/v) heat-inactivated fetal bovine serum with addition of 20 μL test compound in a serial dilution in the presence of final DMSO at 1% and 10 μL of 20 uM ODN2006 in above DMEM, perform incubation under 37° C. in a CO2 incubator for 20 hrs. Then 20 μL of the supernatant from each well was incubated with 180 μL Quanti-blue substrate solution at 37° C. for 2 hrs and the absorbance was read at 620˜655 nm using a spectrophotometer. The signalling pathway that TLR9 activation leads to downstream NF-κB activation has been widely accepted, and therefore similar reporter assay was modified for evaluating TLR9 antagonist.

**Q.** With `C[C@@H]1CN(c2ccc(C#N)n3nccc23)C[C@H](C(=O)NC2CC3CCCC(C2)N3C)O1` (stereo partly drawn) [Example 35, (2R,6R)-4-(7-cyanopyrazolo[1,5-a]pyridin-4-yl)-6-methyl-N-(9-methyl-9-azabicyclo[3.3.1]nonan-3-yl)morpholine-2-carboxamide] as the compound, how does the IC50 read?
**A.** 11 µM

Same assay, conditions: HEK293-Blue-hTLR-9 cells, ODN2006 ligand, 20 hrs incubation; read-out: TLR9 IC50

**Q.** `C[C@@H]1CN(c2ccc(C#N)n3nccc23)C[C@H](C(=O)NC2C3CNCC2COC3)O1` (stereo partly drawn) [Example 27, (2R,6R)-4-(7-cyanopyrazolo[1,5-a]pyridin-4-yl)-6-methyl-N-(3-oxa-7-azabicyclo[3.3.1]nonan-9-yl)morpholine-2-carboxamide] was tested. Which IC50 did it give?
**A.** 6.8 µM

**Q.** Which IC50 does the source give for `C[C@@H]1CN(c2ccc(C#N)n3nccc23)C[C@H](C(=O)N2CCC3(CCNCC3)CC2)O1` [Example 28, 4-[(2R,6R)-2-(3,9-diazaspiro[5.5]undecane-3-carbonyl)-6-methyl-morpholin-4-yl]pyrazolo[1,5a]pyridine-7-carbonitrile] here?
**A.** 1.7 µM

**Q.** For `C[C@@H]1CN(c2ccc(C#N)n3nccc23)C[C@H](C(=O)NC2C3CNC[C@@H]32)O1` (stereo partly drawn) [Example 31, Trans-(2R,6R)-N-(3-azabicyclo[3.1.0]hexan-6-yl)-4-(7-cyanopyrazolo[1,5-a]pyridin-4-yl)-6-methyl-morpholine-2-carboxamide], which IC50 is on record?
**A.** 1.1 µM

**Q.** `C[C@@H]1CN(c2ccc(C#N)n3nccc23)C[C@H](C(=O)NC2CN(C)CC23CC3)O1` (stereo partly drawn) [Example 32, (2R,6R)-4-(7-cyanopyrazolo[1,5-a]pyridin-4-yl)-6-methyl-N-(5-methyl-5-azaspiro[2.4]heptan-7-yl)morpholine-2-carboxamide] was tested. Which IC50 did it give?
**A.** 9.7 µM

**Q.** How did the IC50 turn out when `C[C@@H]1CN(c2ccc(C#N)n3nccc23)C[C@H](C(=O)NC2CC3CCC(C2)N3C)O1` (stereo partly drawn) [Example 33, (2R,6R)-4-(7-cyanopyrazolo[1,5-a]pyridin-4-yl)-6-methyl-N-(8-methyl-8-azabicyclo[3.2.1]octan-3-yl)morpholine-2-carboxamide] was run?
**A.** 7.7 µM

**Q.** `C[C@@H]1CN(c2ccc(C#N)n3nccc23)C[C@H](C(=O)NC2CC3CCC2CN3C)O1` (stereo partly drawn) [Example 34, (2R,6R)-4-(7-cyanopyrazolo[1,5-a]pyridin-4-yl)-6-methyl-N-(2-methyl-2-azabicyclo[2.2.2]octan-5-yl)morpholine-2-carboxamide] was tested. Which IC50 did it give?
**A.** 11 µM

**Q.** How did the IC50 turn out when `C[C@@H]1CN(c2ccc(C#N)n3nccc23)C[C@H](C(=O)NC2CC3CC2CN3)O1` (stereo partly drawn) [Example 36, (2R,6R)-N-(2-azabicyclo[2.2.1]heptan-5-yl)-4-(7-cyanopyrazolo[1,5-a]pyridin-4-yl)-6-methyl-morpholine-2-carboxamide] was run?
**A.** 12 µM

**Q.** Which IC50 does the source give for `C[C@@H]1CN(c2ccc(C#N)n3nccc23)C[C@H](C(=O)NC2C3CCCC2CNC3)O1` (stereo partly drawn) [Example 37, (2R,6R)-N-(3-azabicyclo[3.3.1]nonan-9-yl)-4-(7-cyanopyrazolo[1,5-a]pyridin-4-yl)-6-methyl-morpholine-2-carboxamide] here?
**A.** 6.8 µM

**Q.** `C[C@@H]1CN(c2ccc(Cl)n3nccc23)C[C@H](C(=O)NC2CCN(C)CC2)O1` [Example 38, (2R,6R)-4-(7-chloropyrazolo[1,5-a]pyridin-4-yl)-6-methyl-N-(1-methyl-4-piperidyl)morpholine-2-carboxamide] was tested. Which IC50 did it give?
**A.** 36 µM

**Q.** `C[C@@H]1CN(c2ccc(C#N)n3nccc23)C[C@H](C(=O)NCC(C)(C)CN)O1` [Example 39, (2R,6R)-N-(3-amino-2,2-dimethyl-propyl)-4-(7-cyanopyrazolo[1,5-a]pyridin-4-yl)-6-methyl-morpholine-2-carboxamide] was tested. Which IC50 did it give?
**A.** 19 µM

**Q.** `C[C@@H]1CN(c2ccc(C#N)n3nccc23)C[C@H](C(=O)NCC2CCNC2)O1` (stereo partly drawn) [Example 40, (2R,6R)-4-(7-cyanopyrazolo[1,5-a]pyridin-4-yl)-6-methyl-N-(pyrrolidin-3-ylmethyl)morpholine-2-carboxamide] was tested. Which IC50 did it give?
**A.** 48 µM

**Q.** `C[C@@H]1CN(c2ccc(C#N)n3nccc23)C[C@H](C(=O)NC(C)(C)CN)O1` [Example 41, (2R,6R)-N-(2-amino-1,1-dimethyl-ethyl)-4-(7-cyanopyrazolo[1,5-a]pyridin-4-yl)-6-methyl-morpholine-2-carboxamide] was tested. Which IC50 did it give?
**A.** 11 µM

**Q.** How did the IC50 turn out when `C[C@@H]1CN(c2ccc(C#N)n3nccc23)C[C@H](C(=O)Nc2ccc(C(=O)N3CCNCC3)cc2)O1` [Example 42, (2R,6R)-4-(7-cyanopyrazolo[1,5-a]pyridin-4-yl)-6-methyl-N-[4-(piperazine-1-carbonyl)phenyl]morpholine-2-carboxamide] was run?
**A.** 1.8 µM

**Q.** For `C[C@H]1C[C@@H](N)CN(c2ccc(C#N)n3nccc23)C1` [Example 43, 4-[(3R,5S)-3-amino-5-methyl-1-piperidyl]pyrazolo[1,5-a]pyridine-7-carbonitrile], which IC50 is on record?
**A.** 10 µM

**Q.** `C[C@H]1C[C@@H](NC(=O)[C@H](C)N)CN(c2ccc(C#N)n3nccc23)C1` [Example 44, (2S)-2-amino-N-[(3R,5S)-1-(7-cyanopyrazolo[1,5-a]pyridin-4-yl)-5-methyl-3-piperidyl]propanamide] was tested. Which IC50 did it give?
**A.** 10 µM

**Q.** Which IC50 does the source give for `C[C@H]1C[C@@H](NCC#N)CN(c2ccc(C#N)n3nccc23)C1` [Example 46, 4-[(3R,5S)-3-(cyanomethylamino)-5-methyl-1-piperidyl]pyrazolo[1,5-a]pyridine-7-carbonitrile] here?
**A.** 31 µM

**Q.** With `C[C@@H]1CN(c2ccc(C#N)n3ncc(F)c23)C[C@H](C(=O)NC2CCN(C)CC2)O1` [Example 47, (2R,6R)-4-(7-cyano-3-fluoro-pyrazolo[1,5-a]pyridin-4-yl)-6-methyl-N-(1-methyl-4-piperidyl)morpholine-2-carboxamide] as the compound, how does the IC50 read?
**A.** 14 µM
